Reference: the Kinase Knowledgebase extract (Sharma et al. 2016)

Key:
[1] = target: PIK3CB (Human) (UniProt P42338); assay: Enzyme Assay
[2] = target: PIK3CD (Human) (UniProt O00329); assay: Enzyme Assay
[3] = target: PIK3CG (human) (UniProt P48736); assay: Enzyme Assay
[4] = target: PIK3CD (Human) (UniProt O00329); assay: Cell-Based Assay; details: raji

PIK3CB (Human), sequence (P42338 whole entry, looked up): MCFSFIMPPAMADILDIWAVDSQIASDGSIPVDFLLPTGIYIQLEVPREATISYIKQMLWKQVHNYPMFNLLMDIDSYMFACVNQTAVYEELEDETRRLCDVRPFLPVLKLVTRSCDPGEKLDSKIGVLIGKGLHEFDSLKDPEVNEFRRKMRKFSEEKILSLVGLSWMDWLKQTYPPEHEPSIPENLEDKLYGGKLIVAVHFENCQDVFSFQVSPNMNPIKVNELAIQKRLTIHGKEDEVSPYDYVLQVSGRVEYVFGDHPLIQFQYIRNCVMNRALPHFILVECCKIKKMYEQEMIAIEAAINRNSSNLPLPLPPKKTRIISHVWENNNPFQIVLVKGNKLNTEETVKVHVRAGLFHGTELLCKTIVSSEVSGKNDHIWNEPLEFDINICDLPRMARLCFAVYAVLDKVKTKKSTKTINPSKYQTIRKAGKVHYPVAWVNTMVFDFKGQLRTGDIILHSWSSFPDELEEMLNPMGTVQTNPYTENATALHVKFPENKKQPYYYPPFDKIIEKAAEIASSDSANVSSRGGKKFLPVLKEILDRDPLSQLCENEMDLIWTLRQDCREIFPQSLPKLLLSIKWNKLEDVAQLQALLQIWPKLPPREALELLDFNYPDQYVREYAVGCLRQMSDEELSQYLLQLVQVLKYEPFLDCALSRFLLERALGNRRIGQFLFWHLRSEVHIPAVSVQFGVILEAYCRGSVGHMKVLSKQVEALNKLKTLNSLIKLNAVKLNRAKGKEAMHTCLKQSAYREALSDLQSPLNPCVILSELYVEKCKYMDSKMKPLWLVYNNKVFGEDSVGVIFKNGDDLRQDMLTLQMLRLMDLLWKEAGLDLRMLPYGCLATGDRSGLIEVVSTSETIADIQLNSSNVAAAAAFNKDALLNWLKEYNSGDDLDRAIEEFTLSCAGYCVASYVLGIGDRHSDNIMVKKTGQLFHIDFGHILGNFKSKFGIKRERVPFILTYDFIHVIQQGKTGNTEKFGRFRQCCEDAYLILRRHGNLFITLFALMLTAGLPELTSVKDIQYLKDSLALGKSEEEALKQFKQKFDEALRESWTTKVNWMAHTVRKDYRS
PIK3CG (human), sequence (P48736 whole entry, looked up): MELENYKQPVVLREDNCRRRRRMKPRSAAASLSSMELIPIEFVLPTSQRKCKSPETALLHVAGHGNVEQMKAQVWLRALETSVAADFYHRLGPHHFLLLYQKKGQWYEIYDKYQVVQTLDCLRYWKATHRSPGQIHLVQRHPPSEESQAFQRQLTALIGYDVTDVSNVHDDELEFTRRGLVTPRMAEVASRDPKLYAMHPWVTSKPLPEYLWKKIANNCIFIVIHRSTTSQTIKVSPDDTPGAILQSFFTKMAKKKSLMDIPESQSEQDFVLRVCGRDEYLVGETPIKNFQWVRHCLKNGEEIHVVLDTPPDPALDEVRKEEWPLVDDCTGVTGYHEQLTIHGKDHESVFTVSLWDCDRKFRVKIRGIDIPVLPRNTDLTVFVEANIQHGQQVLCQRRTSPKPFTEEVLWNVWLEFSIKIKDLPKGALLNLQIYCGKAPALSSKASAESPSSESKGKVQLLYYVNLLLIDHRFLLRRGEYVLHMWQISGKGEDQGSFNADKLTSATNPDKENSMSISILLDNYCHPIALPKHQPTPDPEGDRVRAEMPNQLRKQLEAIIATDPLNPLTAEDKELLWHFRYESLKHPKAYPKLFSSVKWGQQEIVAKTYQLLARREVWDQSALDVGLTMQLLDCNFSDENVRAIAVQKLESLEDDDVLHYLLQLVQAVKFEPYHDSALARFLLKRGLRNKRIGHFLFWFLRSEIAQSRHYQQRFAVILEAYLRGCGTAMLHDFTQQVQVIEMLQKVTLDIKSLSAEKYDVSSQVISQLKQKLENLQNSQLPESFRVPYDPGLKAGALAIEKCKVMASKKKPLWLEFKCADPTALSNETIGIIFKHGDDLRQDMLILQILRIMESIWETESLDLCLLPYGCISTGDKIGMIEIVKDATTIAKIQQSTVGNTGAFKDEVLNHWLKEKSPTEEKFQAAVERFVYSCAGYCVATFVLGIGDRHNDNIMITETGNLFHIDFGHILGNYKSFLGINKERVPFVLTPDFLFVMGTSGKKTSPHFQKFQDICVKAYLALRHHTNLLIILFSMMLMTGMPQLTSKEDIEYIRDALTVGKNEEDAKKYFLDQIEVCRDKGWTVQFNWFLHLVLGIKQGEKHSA
PIK3CD (Human), sequence (O00329 whole entry, looked up): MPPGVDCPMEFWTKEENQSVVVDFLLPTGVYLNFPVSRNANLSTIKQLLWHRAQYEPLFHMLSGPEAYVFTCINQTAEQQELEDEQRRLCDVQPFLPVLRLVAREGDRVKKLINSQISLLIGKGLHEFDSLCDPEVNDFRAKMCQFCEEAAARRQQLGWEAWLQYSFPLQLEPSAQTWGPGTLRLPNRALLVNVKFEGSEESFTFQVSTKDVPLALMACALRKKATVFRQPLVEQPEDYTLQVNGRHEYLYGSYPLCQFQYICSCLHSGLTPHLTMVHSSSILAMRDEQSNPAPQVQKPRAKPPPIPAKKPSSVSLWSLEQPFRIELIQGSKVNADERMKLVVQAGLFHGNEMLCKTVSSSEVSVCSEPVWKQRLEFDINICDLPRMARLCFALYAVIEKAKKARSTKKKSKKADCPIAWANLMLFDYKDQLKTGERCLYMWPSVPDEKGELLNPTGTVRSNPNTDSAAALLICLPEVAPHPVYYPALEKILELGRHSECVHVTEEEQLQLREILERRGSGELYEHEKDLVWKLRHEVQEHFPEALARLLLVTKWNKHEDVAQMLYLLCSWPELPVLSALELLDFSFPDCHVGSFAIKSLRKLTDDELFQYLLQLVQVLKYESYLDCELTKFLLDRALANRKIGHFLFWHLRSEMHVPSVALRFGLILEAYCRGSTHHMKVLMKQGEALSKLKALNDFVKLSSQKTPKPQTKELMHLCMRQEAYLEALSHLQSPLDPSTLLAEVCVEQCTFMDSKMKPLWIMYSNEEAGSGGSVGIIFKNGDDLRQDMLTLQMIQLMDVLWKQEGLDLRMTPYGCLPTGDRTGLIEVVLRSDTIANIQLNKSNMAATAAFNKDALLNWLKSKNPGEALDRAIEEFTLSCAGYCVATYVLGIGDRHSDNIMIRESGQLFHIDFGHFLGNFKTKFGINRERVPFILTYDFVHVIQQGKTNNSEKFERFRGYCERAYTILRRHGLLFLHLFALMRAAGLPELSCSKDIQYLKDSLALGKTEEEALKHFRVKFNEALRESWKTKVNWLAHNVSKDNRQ

Row | IC50 [1] [nM] | IC50 [2] [nM] | IC50 [3] [nM] | IC50 [4] [nM] | Compound
1 | 5000 to 10000 | 5000 to 10000 | 100 to 500 | 1000 to 10000 | C[C@H](NC(=O)c1c(N)nn2cccnc12)c1cc2cccc(C#CCN3CCOCC3)c2c(=O)n1-c1ccccc1
2 | 5000 to 10000 | 1000 to 5000 | 1 to 100 | 1 to 100 | C#Cc1cccc2nc([C@H](C)NC(=O)c3c(N)nn4cccnc34)n(-c3ccc(F)cc3)c(=O)c12
3 | 1000 to 5000 | 1000 to 5000 | 1 to 100 | 100 to 500 | C[C@H](O)C#Cc1cccc2cc([C@H](C)NC(=O)c3c(N)nn4cccnc34)n(-c3ccccc3)c(=O)c12
4 | 5000 to 10000 | 5000 to 10000 | 1000 to 5000 | 1000 to 10000 | C[C@H](NC(=O)c1c(N)nn2cccnc12)c1cc2cccc(C#CC3CCCCC3)c2c(=O)n1-c1ccccc1
5 | 5000 to 10000 | 5000 to 10000 | 500 to 1000 | 1000 to 10000 | Cc1nc(C)c(C#Cc2cccc3cc([C@H](C)NC(=O)c4c(N)nn5cccnc45)n(-c4ccccc4)c(=O)c23)s1
6 | 1000 to 5000 | 1000 to 5000 | 1 to 100 | 100 to 500 | C[C@H](NC(=O)c1c(N)nn2cccnc12)c1cc2cccc(C#Cc3cscn3)c2c(=O)n1-c1ccccc1
7 | 5000 to 10000 | 5000 to 10000 | 500 to 1000 | 100 to 500 | C[C@H](NC(=O)c1c(N)nn2cccnc12)c1cc2cccc(CC(=O)c3cnn(C)c3)c2c(=O)n1-c1ccccc1
8 | 5000 to 10000 | 5000 to 10000 | 1000 to 5000 | 1000 to 10000 | Cc1nn(C)c(C)c1C#Cc1cccc2cc([C@H](C)NC(=O)c3c(N)nn4cccnc34)n(-c3ccccc3)c(=O)c12
9 | 1000 to 5000 | 1000 to 5000 | 100 to 500 | 100 to 500 | C[C@H](NC(=O)c1c(N)nn2cccnc12)c1cc2cccc(C#CC3CC3)c2c(=O)n1-c1ccccc1
10 | 1000 to 5000 | 1 to 500 | 1 to 100 | 1 to 100 | C[C@H](NC(=O)c1c(N)nn2cccnc12)c1cc2cccc(C#CCN3CCCC3=O)c2c(=O)n1-c1ccccc1
11 | 5000 to 10000 | 5000 to 10000 | 500 to 1000 | 1000 to 10000 | C[C@H](NC(=O)c1c(N)nn2cccnc12)c1cc2cccc(C#CC(C)(C)N)c2c(=O)n1-c1ccccc1
12 | 5000 to 10000 | 5000 to 10000 | 100 to 500 | 100 to 500 | COc1ncc(C#Cc2cccc3cc([C@H](C)NC(=O)c4c(N)nn5cccnc45)n(-c4ccccc4)c(=O)c23)cn1
13 | 1 to 500 | 1000 to 5000 | 1 to 100 | 100 to 500 | C[C@H](NC(=O)c1c(N)nn2cccnc12)c1cc2cccc(C#CC=O)c2c(=O)n1-c1ccccc1
14 | 5000 to 10000 | 5000 to 10000 | 100 to 500 | 500 to 1000 | COc1ccc(C#Cc2cccc3cc([C@H](C)NC(=O)c4c(N)nn5cccnc45)n(-c4ccccc4)c(=O)c23)cn1
15 | 5000 to 10000 | 5000 to 10000 | 1000 to 5000 | 1000 to 10000 | Cc1ncccc1C#Cc1cccc2cc([C@H](C)NC(=O)c3c(N)nn4cccnc34)n(-c3ccccc3)c(=O)c12
16 | 1000 to 5000 | 5000 to 10000 | 1000 to 5000 | 100 to 500 | C[C@H](NC(=O)c1c(N)nn2cccnc12)c1cc2cccc(C#Cc3cncn3C)c2c(=O)n1C1CC1
17 | 5000 to 10000 | 1 to 500 | 1000 to 5000 | 1 to 100 | C[C@H](NC(=O)c1c(N)nn2cccnc12)c1cc2cccc(C#Cc3ccccc3)c2c(=O)n1-c1ccccc1
18 | 5000 to 10000 | 5000 to 10000 | 1 to 100 | 500 to 1000 | Cc1nc(C#Cc2cccc3nc([C@H](C)NC(=O)c4c(N)nn5cccnc45)n(-c4ccccc4)c(=O)c23)cs1
19 | 5000 to 10000 | 5000 to 10000 | 100 to 500 | 100 to 500 | C[C@H](NC(=O)c1c(N)nn2cccnc12)c1cc2cccc(C#Cc3ccn[nH]3)c2c(=O)n1-c1ccccc1
20 | 5000 to 10000 | 5000 to 10000 | 1000 to 5000 | 500 to 1000 | C[C@H](NC(=O)c1c(N)nn2cccnc12)c1cc2cccc(C#CC(F)(F)F)c2c(=O)n1-c1ccccc1
21 | 5000 to 10000 | 5000 to 10000 | 100 to 500 | 100 to 500 | C#Cc1cccc2nc([C@H](C)NC(=O)c3c(N)nn4cccnc34)n(-c3ccc(F)c(F)c3)c(=O)c12
22 | 1000 to 5000 | 5000 to 10000 | 1 to 100 | 100 to 500 | C[C@H](NC(=O)c1c(N)nn2cccnc12)c1cc2cccc(C#Cc3cn[nH]c3)c2c(=O)n1-c1ccccc1
23 | 5000 to 10000 | 5000 to 10000 | 100 to 500 | 100 to 500 | Cc1csc(C#Cc2cccc3cc([C@H](C)NC(=O)c4c(N)nn5cccnc45)n(-c4ccccc4)c(=O)c23)n1
24 | 5000 to 10000 | 5000 to 10000 | 100 to 500 | 500 to 1000 | Cc1c(C#Cc2cccc3cc([C@H](C)NC(=O)c4c(N)nn5cccnc45)n(-c4ccccc4)c(=O)c23)cnn1C

Row | IC50 [1] [nM] | IC50 [2] [nM] | IC50 [3] [nM] | IC50 [4] [nM] | Compound
25 | 5000 to 10000 | 5000 to 10000 | 1 to 100 | 500 to 1000 | Cc1ncc(C#Cc2cccc3cc([C@H](C)NC(=O)c4c(N)nn5cccnc45)n(-c4ccccc4)c(=O)c23)n1C
26 | 5000 to 10000 | 5000 to 10000 | 500 to 1000 | 1000 to 10000 | C[C@H](NC(=O)c1c(N)nn2cccnc12)c1cc2ccc3ccccc3c2c(=O)n1-c1ccccc1
27 | 1000 to 5000 | 1000 to 5000 | 100 to 500 | 1 to 100 | C[C@H](NC(=O)c1nccnc1N)c1cc2cccc(C#Cc3cnn(C)c3)c2c(=O)n1-c1ccccc1
28 | 5000 to 10000 | 5000 to 10000 | 100 to 500 | 100 to 500 | C[C@H](NC(=O)c1c(N)nn2cccnc12)c1cc2cccc(C#Cc3cc[nH]c(=O)c3)c2c(=O)n1-c1ccccc1
29 | 5000 to 10000 | 5000 to 10000 | 100 to 500 | 1000 to 10000 | COC(C)C#Cc1cccc2cc([C@H](C)NC(=O)c3c(N)nn4cccnc34)n(-c3ccccc3)c(=O)c12 (stereo partly specified)
30 | 5000 to 10000 | 5000 to 10000 | 500 to 1000 | 500 to 1000 | C[C@H](NC(=O)c1c(N)nn2cccnc12)c1cc2cccc(C#CC3CCN(S(C)(=O)=O)CC3)c2c(=O)n1-c1ccccc1
31 | 5000 to 10000 | 5000 to 10000 | 100 to 500 | 100 to 500 | C[C@H](NC(=O)c1c(N)nn2cccnc12)c1cc2cccc(C#Cc3nccs3)c2c(=O)n1-c1ccccc1
32 | 5000 to 10000 | 5000 to 10000 | 500 to 1000 | 100 to 500 | C[C@H](NC(=O)c1c(N)nn2cccnc12)c1cc2cccc(C#CCN(C)C)c2c(=O)n1-c1ccccc1
33 | 5000 to 10000 | 5000 to 10000 | 100 to 500 | 100 to 500 | C[C@H](NC(=O)c1c(N)nn2cccnc12)c1cc2cccc(C#Cc3cccnc3)c2c(=O)n1-c1ccccc1
34 | 5000 to 10000 | 5000 to 10000 | 100 to 500 | 100 to 500 | C[C@H](NC(=O)c1c(N)nn2cccnc12)c1cc2cccc(C#Cc3ccncc3)c2c(=O)n1-c1ccccc1
35 | 1000 to 5000 | 1000 to 5000 | 1 to 100 | 100 to 500 | C[C@H](NC(=O)c1c(N)nn2cccnc12)c1cc2cccc(C#Cc3cocn3)c2c(=O)n1-c1ccccc1
36 | 5000 to 10000 | 5000 to 10000 | 1000 to 5000 | 1000 to 10000 | Cc1ncsc1C#Cc1cccc2cc([C@H](C)NC(=O)c3c(N)nn4cccnc34)n(-c3ccccc3)c(=O)c12
37 | 5000 to 10000 | 5000 to 10000 | 100 to 500 | 100 to 500 | Cc1ncc(C#Cc2cccc3cc([C@H](C)NC(=O)c4c(N)nn5cccnc45)n(-c4ccccc4)c(=O)c23)s1
38 | 5000 to 10000 | 5000 to 10000 | 100 to 500 | 1 to 100 | C/C=C/c1cccc2cc([C@H](C)NC(=O)c3c(N)nn4cccnc34)n(-c3ccccc3)c(=O)c12
39 | 5000 to 10000 | 5000 to 10000 | 100 to 500 | 100 to 500 | Cc1scnc1C#Cc1cccc2cc([C@H](C)NC(=O)c3c(N)nn4cccnc34)n(-c3ccccc3)c(=O)c12
40 | 5000 to 10000 | 1000 to 5000 | 500 to 1000 | 1000 to 10000 | C[C@H](NC(=O)c1c(N)nn2cccnc12)c1cc2cccc(C#CC3CNC3)c2c(=O)n1-c1ccccc1
41 | 1000 to 5000 | 5000 to 10000 | 1000 to 5000 | 500 to 1000 | C[C@H](NC(=O)c1c(N)nn2cccnc12)c1nc2cccc(C#Cc3cnn(C)c3)c2c(=O)n1C
42 | 5000 to 10000 | 5000 to 10000 | 100 to 500 | 500 to 1000 | C[C@H](NC(=O)c1c(N)nn2cccnc12)c1cc2cccc(C#Cc3ccnn3C)c2c(=O)n1-c1ccccc1
43 | 5000 to 10000 | 5000 to 10000 | 1000 to 5000 | 1000 to 10000 | C[C@H](NC(=O)c1c(N)nn2cccnc12)c1cc2cccc(C#CC(C)(C)C)c2c(=O)n1-c1ccccc1
44 | 5000 to 10000 | 5000 to 10000 | 100 to 500 | 500 to 1000 | CC(=O)N1CCC(C#Cc2cccc3cc([C@H](C)NC(=O)c4c(N)nn5cccnc45)n(-c4ccccc4)c(=O)c23)CC1
45 | 5000 to 10000 | 5000 to 10000 | 1000 to 5000 | 1000 to 10000 | Cc1cnc(C(=O)N[C@@H](C)c2cc3cccc(C#Cc4cnn(C)c4)c3c(=O)n2-c2ccccc2)c(N)n1
46 | 5000 to 10000 | 5000 to 10000 | 100 to 500 | 1000 to 10000 | C[C@H](NC(=O)c1cnn2cccnc12)c1cc2cccc(C#Cc3cnn(C)c3)c2c(=O)n1-c1ccccc1
47 | 5000 to 10000 | 500 to 1000 | 1 to 100 | 100 to 500 | C[C@H](NC(=O)c1c(N)nn2cccnc12)c1cc2cccc(C#C[C@@H](C)O)c2c(=O)n1-c1ccccc1
48 | 5000 to 10000 | 5000 to 10000 | 100 to 500 | 100 to 500 | C[C@H](NC(=O)c1c(N)nn2cccnc12)c1cc2cccc(C#Cc3cncs3)c2c(=O)n1-c1ccccc1

Row | Compound | IC50 [1] [nM] | IC50 [2] [nM] | IC50 [3] [nM] | IC50 [4] [nM]
49 | C[C@H](NC(=O)c1c(N)nn2cccnc12)c1cc2cccc(C#CC3(O)CN4CCC3CC4)c2c(=O)n1-c1ccccc1 (stereo partly specified) | 5000 to 10000 | 5000 to 10000 | 500 to 1000 | 1000 to 10000
